Where “and” joins values, the source holds several entries; their conditions need not be identical. Equal entries are not always repeated.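 In this assay, cells in 96-well plates receive the compound at five concentrations for 48 hours. Endpoints are linearly interpolated between the surrounding concentrations. GI50 = concentration required for 50% inhibition of growth. Definition used: TGI = concentration required for complete inhibition of growth.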 Where a SMILES comes first, the peptide text is derived from it. Bridges are numbered along the chain shown (N, C = ends). [ ]: non-standard residue; d: D form. The star is where a group is joined. ξ: configuration not given here. ξDab(CH2SO3H) = NC(CCNCS(=O)(=O)O)C(=O)O; Heptanoyl(6-Me) = CC(C)CCCCC(=O)*; Dab = NCC[CH](N)C(=O)O
Legend:
Test in all cases: NCI anticancer screen, dose series, 48 h
T-47D breast = tested on: T-47D breast
SF-295 CNS = tested on: SF-295 CNS
MCF7 breast = tested on: MCF7 breast
NCI/ADR-RES ovarian = tested on: NCI/ADR-RES ovarian
BT-549 breast = tested on: BT-549 breast
OVCAR-8 ovarian = tested on: OVCAR-8 ovarian
HS 578T breast = tested on: HS 578T breast
NCI-H460 lung = tested on: NCI-H460 lung

SMILES	GI50 (T-47D breast) [µM]	TGI (T-47D breast) [µM]	GI50 (SF-295 CNS)	TGI (SF-295 CNS) [µM]	GI50 (MCF7 breast) [µM]	TGI (MCF7 breast) [µM]	GI50 (NCI/ADR-RES ovarian) [µM]	TGI (NCI/ADR-RES ovarian) [µM]	GI50 (BT-549 breast) [µM]	TGI (BT-549 breast) [µM]	GI50 (OVCAR-8 ovarian) [µM]	TGI (OVCAR-8 ovarian) [µM]	GI50 (HS 578T breast)	TGI (HS 578T breast) [µM]	GI50 (NCI-H460 lung) [µM]	TGI (NCI-H460 lung) [µM]
C[C@]12CC[C@@H]3c4cc(O)c(O)cc4CC[C@H]3[C@@H]1CC[C@@H]2O	7.73	27.7	7.19 µM	32.9	3.07	18	1.3	> 45.4	1.78	42.3	6.89	> 100	1.98 µM	17.5	3.75	18.1
NC(N)=NC(N)=Nc1cnccn1	–	> 100	–	> 100	–	> 100	–	> 100	–	–	–	> 100	–	–	–	–
O=C(/C(=C/c1ccc([N+](=O)[O-])cc1)SCc1ccc(Cl)cc1)c1ccc(F)cc1	4.32	19.3	4.02 µM	14.4	1.56	4.78	2.78	11.2	2.06	4.56	3.17	12.7	2.42 µM	7.68	5.79	24.7
CCC(C)C1NC(=O)C(CCNCS(=O)(=O)O)NC(=O)C(NC(=O)C(CCNCS(=O)(=O)O)NC(=O)C(NC(=O)C(CCNCS(=O)(=O)O)NC(=O)CCCCC(C)C)C(C)O)CCNC(=O)C(C(C)O)NC(=O)C(CCNCS(=O)(=O)O)NC(=O)C(CCNCS(=O)(=O)O)NC(=O)C(C(C)CC)NC1=O (stereo not drawn) ({Heptanoyl(6-Me)}-[ξDab(CH2SO3H)]T[ξDab(CH2SO3H)][Dab][ξDab(CH2SO3H)]II[ξDab(CH2SO3H)][ξDab(CH2SO3H)]T; lactam 4-C; configuration not given here)	> 25	> 25	6.66 µM	> 25	4.71	> 25	> 25	> 25	6.27	> 25	9.66	> 25	7.65 µM	> 25	6.86	22.1
N/C(=N/N=C/c1ccccc1)N/N=C\c1ccccc1	4.73	> 100	3.96 µM	32.4	3.4	> 100	3.26	> 100	7.2	46.4	6.69	> 100	3.73 µM	42.5	3.89	> 100
COc1cc(-c2oc3c(OC)cc(OC)c(O)c3c(=O)c2OC)cc(OC)c1OC	–	> 100	–	7.55	–	> 100	–	> 100	–	> 100	–	32.7	–	8.21	–	> 100
COc1ccc2c(c1)oc(=O)c1cc(OC)ccc12	> 100	> 100	> 100 µM	> 100	> 100	> 100	> 100	> 100	> 100	> 100	> 100	> 100	> 100 µM	> 100	> 100	> 100
CCCCCCCCC/C(=N\NC(=O)c1ccncc1)c1ccc(O)c(O)c1O	0.596	> 93.6	0.307 µM	> 100	0.309	18.3	0.093	11.4	0.36	67.2	0.179	> 100	–	> 100	0.0705	1.1
CN(C)CCCCC(C(=O)CBr)(c1ccccc1)c1ccccc1	1.14	3.71	5.56 µM	19.2	1.5	3.25	2.85	10.1	1.48	3.47	2.52	8.48	3.11 µM	22.7	6.36	23
c1ccc2cc(NCNc3ccc4ccccc4c3)ccc2c1	–	49.4	–	33.9	–	25.6	–	72.5	–	53.2	–	58.2	–	> 100	–	28.9
COc1cc(C(=O)N2CCN(c3ccccc3)CC2)c2ccccc2n1	0.053	> 100	0.0276 µM	0.115	0.0386	> 100	0.0361	0.176	0.475	> 100	0.248	> 23.8	0.0387 µM	0.387	0.0481	4.1
C[C@]12CC[C@@H]3c4cc(OC(F)F)c(OS(N)(=O)=O)cc4CC[C@H]3[C@@H]1CC[C@@H]2OS(N)(=O)=O	1.56	31.7	1.04 µM	3.14	1.09	19.2	0.696	28.9	3.19	20.4	1.74	> 59	1 µM	16.1	1.45	15.4
C=C1C(=O)O[C@H]2C[C@@H]1CC/C(C)=C/CC/C(C)=C/CC[C@@]2(C)O	> 100	> 100	> 100 µM	> 100	37.3	> 100	> 100	> 100	24.2	59.9	81.2	> 100	48 µM	> 100	> 100	> 100
Cc1ccc(NC(=O)c2cc3ccccc3c(N=Nc3cc(S(=O)(=O)O)ccc3O)c2O)c(C)c1	–	> 100	–	88.9	–	–	–	> 100	–	> 100	–	> 100	–	> 100	–	–
CC1(C)CC[C@]2(C(=O)O)CC[C@]3(C)C(=CC[C@@H]4[C@@]5(C)C[C@H](O)[C@H](O)[C@@](C)(C(=O)O)[C@@H]5CC[C@]43C)[C@@H]2C1	–	> 100	–	> 100	–	> 100	–	> 100	–	> 100	–	> 100	–	> 100	–	> 100
N#Cc1c(N)n2c(nc1=Nc1ccc(Cl)cc1)sc1cc(Cl)ccc12	> 100	> 100	4.12 µM and 3.04 µM	42.9	1.83	> 100	4.69	34.8	24.8	> 100	–	–	2.98 µM and 1.44 µM	5.92	22	> 100

SMILES	GI50 (T-47D breast) [µM]	TGI (T-47D breast) [µM]	GI50 (SF-295 CNS)	TGI (SF-295 CNS) [µM]	GI50 (MCF7 breast) [µM]	TGI (MCF7 breast) [µM]	GI50 (NCI/ADR-RES ovarian) [µM]	TGI (NCI/ADR-RES ovarian) [µM]	GI50 (BT-549 breast) [µM]	TGI (BT-549 breast) [µM]	GI50 (OVCAR-8 ovarian) [µM]	TGI (OVCAR-8 ovarian) [µM]	GI50 (HS 578T breast)	TGI (HS 578T breast) [µM]	GI50 (NCI-H460 lung) [µM]	TGI (NCI-H460 lung) [µM]
C=C1C(=O)O[C@H]2[C@H]1CC/C(C=Nc1c(N)cc(C(F)(F)F)cc1C(F)(F)F)=C\CC[C@@]1(C)O[C@@H]21	0.55	2.64	5.1 µM	17.1	0.498	2.34	2	5.75	1.47	3.17	1.79	9.85	1.67 µM	7.45	1.53	3.38
Cc1nc(-c2nc(-c3ccc(OC(F)(F)F)cc3)no2)nn1Cc1cccc(N2CCC(S(C)(=O)=O)CC2)c1	0.0134	> 100	0.0227 µM	> 77	0.0136	48.6	0.529	28.6	1.07	38.6	3.86	> 100	> 36.9 µM	> 82.1	5.95	> 100
COc1ccc(Cn2cc3c(c2-c2ccccc2)CCc2cnoc2-3)cc1OC	0.664	71.2	0.34 µM	> 100	0.574	> 100	0.324	1.91	–	–	3.48	> 100	0.564 µM	6.94	0.457	> 100
O=[N+]([O-])c1ccc(C2CC(c3ccccc3)=Nc3ccccc3S2)cc1 (stereo not drawn)	> 100	> 100	> 100 µM	> 100	1.81	6.72	> 100	> 100	> 100	> 100	52.4	> 100	19.1 µM	> 100	> 100	> 100
O=C([O][Hg][CH2]C1OCCOC1[CH2][Hg][O]C(=O)c1ccccc1)c1ccccc1 (stereo not drawn)	1.82	3.59	17.6 µM	32.7	1.97	24.4	18.7	40.7	8.22	20.4	14.9	44	16.1 µM	43.9	19.1	36.2
COc1ccc2cc(C(=O)/C=C/c3ccc(N(C)C)cc3)ccc2c1	> 100	> 100	> 100 µM	> 100	83	> 100	49.8	> 100	39.5	> 100	> 100	> 100	–	–	62.5	> 100
CC(=O)Nc1c(I)c(NC(C)=O)c(I)c(C(=O)O)c1I	> 100	> 100	–	–	> 100	> 100	> 100	> 100	> 100	> 100	> 100	> 100	> 100 µM	> 100	> 100	> 100
CCNC(=O)Nc1ccc(Oc2ccnc3ccc4c(ccn4C)c23)cc1	23.2	62.1	18.9 µM	72.1	37.9	> 100	55.8	> 100	56.3	> 100	23	> 100	–	–	25	> 100
CCN1C(=O)N(CC)C2C1NN=c1s/c(=C\c3ccco3)c(=O)n12 (stereo not drawn)	–	–	0.47 µM	> 44.6	0.361	> 100	0.417	> 100	0.791	> 100	1.43	> 100	0.459 µM	> 100	0.403	> 100
COc1ccc(Sc2nc3cc(N)cc(N)c3nc2-c2ccccc2)cc1	> 100	> 100	> 100 µM	> 100	16.5	> 100	> 100	> 100	–	–	> 100	> 100	> 100 µM	> 100	20	> 100
N#Cc1c(N2CCOCC2)nc(=S)[nH]c1-c1ccccc1	4.15	> 100	–	–	4.89	> 100	53.4	> 100	8.78	> 100	39.2	> 100	7.65 µM	60.7	9.57	> 100
CCCCCCCCCCCC(=O)N1CCN(C(C)=O)CC1	–	–	26.6 µM	63	17.6	32.8	25.9	72.6	24.6	58.1	29.3	> 100	21.5 µM	48.4	19.8	38.1
CC(C)(C)[Si](C)(C)OC1[C@@H](O[Si](C)(C)C(C)(C)C)[C@@H](CNC(=O)NC(=O)CF)O[C@H]1n1cnc2c(NC(=O)Nc3ccccc3)ncnc21 (stereo partly drawn)	4.7	> 50	–	–	1.78	13.2	48.5	> 50	12.2	42.5	12.8	> 50	10.1 µM	> 50	8.32	> 50
CC(N)(/C=C/c1ccccc1)C(=O)O (stereo not drawn)	–	–	–	> 100	–	> 100	–	> 100	–	> 100	–	> 100	–	> 100	–	> 100
COc1cccc(/C=N/NC(=O)c2ccccc2N2CCCC2)c1O	3.02	36.9	4.88 µM	> 100	–	–	2.8	> 100	12.6	> 100	5.49	> 100	10.3 µM	68.8	3.25	52
[Cl][Hg][c]1ccc(Cl)s1	0.908	3.37	11.5 µM	25.7	–	–	3.31	23.3	2.11	5.21	2.51	6.25	4.41 µM	73.7	8.9	35.7
